Earlier results on two molecules are cited in patent US20030143271A1, “Drug mixture with enhanced dissolution rate” (priority 2002, published 2003).

For data set [1], the target named is platelet cyclooxygenase-1 (Homo sapiens, UniProt P23219). The conditions noted are these: clinical relevance not clear.
For data set [2], the system named is antiplatelet effects of the aspirin. The conditions noted are these: in combination with low-dose aspirin, healthy subjects.

Sequence of platelet cyclooxygenase-1 (P23219 24-599): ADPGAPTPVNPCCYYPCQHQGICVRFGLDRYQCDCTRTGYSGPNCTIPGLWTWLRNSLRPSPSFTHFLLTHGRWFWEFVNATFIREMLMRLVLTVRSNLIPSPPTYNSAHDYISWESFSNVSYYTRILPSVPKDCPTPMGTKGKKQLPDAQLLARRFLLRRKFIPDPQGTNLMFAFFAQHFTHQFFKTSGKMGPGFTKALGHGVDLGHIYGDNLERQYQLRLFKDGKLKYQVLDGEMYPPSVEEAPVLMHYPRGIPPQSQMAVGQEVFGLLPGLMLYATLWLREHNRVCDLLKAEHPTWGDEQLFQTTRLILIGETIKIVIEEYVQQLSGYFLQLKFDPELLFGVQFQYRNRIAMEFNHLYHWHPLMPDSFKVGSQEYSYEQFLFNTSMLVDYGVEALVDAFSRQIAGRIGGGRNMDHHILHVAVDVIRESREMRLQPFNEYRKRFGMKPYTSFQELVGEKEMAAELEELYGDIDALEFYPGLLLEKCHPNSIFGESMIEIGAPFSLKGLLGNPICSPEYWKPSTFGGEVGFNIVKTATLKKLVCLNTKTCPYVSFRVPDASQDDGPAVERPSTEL

As to `Cc1onc(-c2ccccc2)c1-c1ccc(S(N)(=O)=O)cc1` [valdecoxib], the “effect on the antiplatelet activity of aspirin” value in data set [1] is recorded as “some antagonistic effect”.

For `CS(=O)(=O)c1ccc(C2=C(c3ccccc3)C(=O)OC2)cc1` [rofecoxib], the “effect on antiplatelet effects of aspirin” value in data set [2] is given as “did not alter antiplatelet effects of the aspirin”. The “effect on the antiplatelet activity of aspirin” value in data set [1] is on record as “some antagonistic effect”.
